Consider two substances from patent publication EP3856749B1, “WATER-SOLUBLE, NON-AGGREGATED SILICON PHTALGCYANINE COMPOUND HAVING IN VITRO ANTICANCER EFFECT AGAINST CANCER TYPES OF LUNG, LIVER, BREST AND MELANOMA” (Karadeniz Teknik Universitesi, priority 2018, dated 2020).

In data set [1] the test system is breast (BT-20) cancer cell lines. Description: Cytotoxicity test (MTT), BT-20. The data set is classed as cell-based, human. The following applies: BT20, 48 hours. From the text: (§1) Cytotoxic effects of test substances are testes by means of using human breast (BT-20), melanoma (SK-Mel 128), prostate (DU-145), liver (SNU-398) and lung (A549) cancer cell lines. Toxic effects of test substances on the healthy normal cells are studied on human fibroblast cells (HFC).
(§2) Cell suspension prepared from alpha-MEM having 10% FBS (Fetal Bovine Serum), fungizone and penicillin/streptomycin is distributed as 5×10^3 of cell in each well in the cell culture containers comprising 96 wells for the test. […] Cells are kept in a humid environment at 5% of CO2 at 37°C for 48 hours in the presence of the test substance, of which final densities are of 200-0.09 µg/mL. 10 µL from the MTT solution (3-[4,5-dimethyltioazol-2,5-diphenyltetrazolium bromide) prepared at a density of 5 mg/mL is added to each well so as to determine the cell generation rate at the end of incubation period. After culture containers are kept in the humid environment at 5% of CO2 at 37°C for 2 hours, the content is emptied and dimethyl sulphoxide (DMSO) is added in the value of 100 µL/well on cells so as to solubilize intracellular formazan crystals. After incubation for 30 minutes, the color intensity is measured in the wave length of 570/620 by means of ELISA Microplate Reader (Tecan, Sunrise).

Data set [2] relates to prostate (DU-145) cancer cell lines. Description: Cytotoxicity test (MTT), DU-145. Type of data set: cell-based, human. Conditions: DU-145, 48 hours.
Excerpt: as §1, §2

Data set [3] relates to melanoma (SK-Mel 128) cancer cell lines. Description: Cytotoxicity test (MTT), SK-Mel 128. The data set is classed as cell-based, human. Conditions: SK-MEL 128, 48 hours.
Excerpt: as §1, §2

Data set [4] relates to CT-DNA. Description: UV-Vis absorption titration. The data set is classed as binding. Conditions: in the presence of CT-DNA; 5 mM Tris-HCl/50 mM NaCl (pH 7.2). The method, then: Stock solutions of compounds are obtained by means of being solved in water and stored in a room temperature in darkness. Stock solutions of CT-DNA are prepared in 5 mM Tris-HCl buffer of 7.2 pH with 50 mM NaCl and stored at 4 °C for three days. At the end of this period, absorbance rates of 260 and 280 nm are calculated so as to determine rate of DNA impurity. […] Concentration of DNA is measured and calculated at 260 nm by using molar excitation coefficient of (ε) 6600 M^-1cm^-1. All studies with the interaction between compounds and CT-DNA are carried out in 5 mM Tris-HCl/50 mM NaCl (pH 7.2) by keeping stock solutions prepared in water at the stable concentration and changing CT-DNA concentration. While carrying out this process, absorbance of CT-DNA is eliminated by adding CT-DNA in an equal amount on the blind solution.
Variations in the absorbance intensity are presented in percent. %H = [(A1−A2)/(A1)] × 100 [formula]
A1: Maximum absorbance of the compound; A2: Absorbance of the compound subsequent to addition of DNA.

Data set [5] concerns CT-DNA. In words: Competitive EB binding experiment. Conditions: EB (50 µM), CT-DNA (50 µM), pH 7.2. The method, then: It is observed in competitive EB binding studies of compounds how the wave length and absorbance, in which EB (50 µM) whose concentration is kept stable presents the maximum absorbance, vary with addition of CT-DNA (50 µM) and then with simultaneous addition of DNA and complex. This study is carried out in the buffer of 5 mM Tris-HCl/50 mM NaCl (pH 7.2).

Data set [6] has as its system supercoiled pBR322 plasmid DNA. In words: Nuclease activity under irradiation (photonuclease). The data set is classed as biochemical. Conditions: for nuclease activity under irradiation: light for 15 minutes, 700 nm filter, increasing concentrations. From the text:
Cleavage activities of supercoiled pBR322 plasmid DNA of the compounds are observed by means of using agarose-gel electrophoresis. When the supercoiled is exposed to pBR322 plasmid DNA electrophoresis, it is observed that the supercoiled form (Form I) migrates in the swiftest manner. In case of a cut occurred on a single chain, the supercoiled form creates a nicked form (Form II) moving in the slowest manner. In case both chains are cut, the linear form (Form III) migrating between Form I and Form II.
It is used General Electric quartz lamb of 300 watts and optical filter of 700 nm for compounds illustrated as Formula I and II to light in the proper wave length so as to observe that the supercoiled pBR322 plasmid DNA is cleavage by the compounds and so as to evaluate usability potentials of the compounds in the photo-dynamic therapy. In this study, total volume of reaction mixture contained 50 mM Tris-HCl (pH 7.0), super-coiled pBR322 plasmid DNA (250 ng), and increasing concentrations of compounds. Afterwards, well contents are exposed to light for 15 minutes. At the end of this period, after mixtures are incubated in darkness at 37 °C for an hour, reactions are stopped by means of above-mentioned methods and cut products are observed on the agarose gel under UV light.

A further data set deals with T1, topoisomerase I enzyme (Homo sapiens, UniProt P11387).
T1 sequence (P11387 1-765): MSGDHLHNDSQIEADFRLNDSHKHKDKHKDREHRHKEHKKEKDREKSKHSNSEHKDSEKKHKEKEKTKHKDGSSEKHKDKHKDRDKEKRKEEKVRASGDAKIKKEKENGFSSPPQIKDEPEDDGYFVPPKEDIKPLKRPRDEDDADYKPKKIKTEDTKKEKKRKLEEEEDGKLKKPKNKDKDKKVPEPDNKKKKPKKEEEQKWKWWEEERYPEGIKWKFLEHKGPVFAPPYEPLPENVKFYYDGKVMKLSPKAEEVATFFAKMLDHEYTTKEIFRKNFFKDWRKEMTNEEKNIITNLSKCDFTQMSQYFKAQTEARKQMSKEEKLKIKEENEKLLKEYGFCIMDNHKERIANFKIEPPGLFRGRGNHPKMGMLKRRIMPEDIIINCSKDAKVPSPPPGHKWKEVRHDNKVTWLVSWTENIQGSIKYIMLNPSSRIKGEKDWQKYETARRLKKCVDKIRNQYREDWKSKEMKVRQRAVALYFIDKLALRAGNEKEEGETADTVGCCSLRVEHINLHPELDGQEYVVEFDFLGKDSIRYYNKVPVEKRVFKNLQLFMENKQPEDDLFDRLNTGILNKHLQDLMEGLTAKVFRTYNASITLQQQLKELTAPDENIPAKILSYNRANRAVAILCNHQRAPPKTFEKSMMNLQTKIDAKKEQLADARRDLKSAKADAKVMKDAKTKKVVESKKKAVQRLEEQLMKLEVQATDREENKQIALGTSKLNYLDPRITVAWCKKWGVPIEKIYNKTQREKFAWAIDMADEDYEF
Description: Topoisomerase I inhibition (relaxation method). The data set is classed as biochemical. The following applies: 1 U Topo I, pBR322 plasmid DNA; 7a 12.5-37.5 µM; 3a 12.5-25 µM. The method, then:
After incubation process, samples are loaded to 0.8 % of agarose gel, exposed to electrophoresis in the running buffer by applying 40 volt of current for 3 hours and forms obtained are observed on the agarose gel under UV light.

What is called CC50 is the concentration giving 50% cytotoxicity. Consider “bis(3,5-bis{3-[3-(diethylmethylamino)phenoxy]propoxy}phenyl)methoxy)phthalocyaninato silicon (IV) Iodide [7a]”, for which the CC50 in data set [1] turned out to be 1440 nM; in data set [2], 2990 nM; in data set [3], 1130 nM. Also, in the data set on CT-DNA [4], the hypochromism came out at 43.64%. In addition, in the data set with CT-DNA [4], the red-shift worked out at 6 nm. For the same substance, the “competitive EB binding” value in the data set with CT-DNA [5] is recorded as “compete with EB so as to bind with CT-DNA”. Besides, in data set [6], the “nuclease activity under irradiation” value is given as “exhibits the nuclease activity depending on the concentration”. The “topoisomerase I inhibition effect” value at topoisomerase I enzyme was “supercoiled form rate increases”.
On to “bis(3,5-bis{3-[3-trimethylamino)phenoxy]propoxy}phenyl)methoxy)phthalocyaninato silicon (IV) Iodide [3a]”, for which the figures for the CC50 in data set [1], in data set [2] and in data set [3] were 3960 nM, 4630 nM and 1470 nM, respectively. For the same substance, the hypochromism in the data set with CT-DNA [4] came out at 25.40%. Besides, the red-shift in the data set with CT-DNA [4] was 6 nm. Also, the “competitive EB binding” value in the data set with CT-DNA [5] is given as “compete with EB so as to bind with CT-DNA”. In addition, the “nuclease activity under irradiation at 100 µM” value in data set [6] (in the presence of light, concentration of 100 µM) is “destroys pBR322 plasmid DNA completely”. The “nuclease activity under irradiation” value in data set [6] is “exhibits the nuclease activity depending on the concentration”. Further, at topoisomerase I enzyme, the “topoisomerase I inhibition effect” value was “supercoiled form rate increases”.
